# Measurements from US6784167B2, “17-beta-hydroxysteroid dehydrogenase-II inhibitors” (Bayer Pharmaceuticals Corporation, priority 2000, dated 2004).
# Read-outs that look alike come from different tables or passages of the source.
# Assays:
# [1] = biological target: T1, 17-Beta HSD II Enzyme (Homo sapiens, UniProt P37059); assay: Primary assay: inhibition of 17-Beta HSD II enzyme (estradiol/NAD, PMS:MTS colorimetric readout at 490 nm); type: biochemical; settings: Table 7, baculovirus-expressed recombinant HSD II, estradiol substrate
# T1 construct: made in house; host or cells: insect cells (baculovirus)
# T1 sequence (P37059 1-387): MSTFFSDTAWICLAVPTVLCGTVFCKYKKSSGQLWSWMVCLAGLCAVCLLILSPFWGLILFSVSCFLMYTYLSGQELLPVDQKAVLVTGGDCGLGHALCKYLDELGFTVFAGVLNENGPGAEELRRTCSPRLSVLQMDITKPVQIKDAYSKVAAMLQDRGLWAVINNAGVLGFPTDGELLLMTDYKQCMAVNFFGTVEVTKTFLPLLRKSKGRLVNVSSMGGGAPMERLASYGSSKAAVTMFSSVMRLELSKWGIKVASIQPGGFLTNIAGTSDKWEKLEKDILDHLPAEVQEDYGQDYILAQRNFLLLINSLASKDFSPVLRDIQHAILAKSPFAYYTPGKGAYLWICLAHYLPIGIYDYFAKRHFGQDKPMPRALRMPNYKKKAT
# Description: HSD II protein purification: The method for purification of baculovirus-expressed HSD II was standardized as follows. The insect cell pellet containing recombinant HSD II was lysed in 2.5 volumes of lysis buffer (40 mM Tris, pH 7.5, 1 mM EDTA, 2 mM DTT, 10 uM NAD) containing 500 uM AEBSF, 10 ug/ml aprotinin, 1 uM pepstatin A, and 100 uM leupeptin. The pellet was nutated for 30 min in this buffer. Subsequently, the pellet was homogenized with 15 strokes using a glass and teflon potter. The volume was doubled with a 2× sucrose/NaCl solution (500 mM sucrose, 300 mM NaCl in lysis buffer). After centrifugation at 10,000×g for 30 min, the supernatant was decanted and stored at −20° C. The pellet was resuspended in 2.5 volumes of lysis buffer containing 250 mM sucrose and 150 mM NaCl. Homogenization was repeated (15 strokes) and the suspension was centrifuged again and the decanted supernatant was stored at −20° C. The pellet was resuspended with 2 times the original pellet volume in lysis buffer containing 150 mM NaCl and 1% Triton X-100. The suspension was nutated for 20 min and then homogenized with 5 strokes. Subsequently, the suspension was centrifuged at 30,000×g for 1 h and supernatant was decanted and poured into a chromatographic column. Sephadex G-25 (fine) was added in small amounts, allowing approximately 15 min after each addition for complete swelling. Sephadex addition was continued until all liquid was absorbed. The protein was eluted with 1 void volume of lysis buffer and eluate monitored at 280 nm optical density. The chromatographic procedure was repeated and an equal volume of glycerol was added to the final eluate.
# Primary assay: After titration, the HSD II prep, generated with the standard protocol, was diluted to the appropriate concentration (generally 1/15 dilution). 55 μl of assay buffer (50 mM Hepes, pH 8.0) was added to all wells of a 96 well plate. 5 μl of 5% DMSO were added to wells A1-C1, A2-C2, F1-H1, and F2-H2. A 10 μl aliquot of a 10 mM solution in DMSO of each compound was diluted in 190 μl of assay buffer. The plate with these compound dilutions was then mixed for 15 min on a shaker and a 5 μl aliquot from each well was added to the […]. This was followed by 10 μl of HSD II enzyme ( 1/15 dilution)/estradiol mix in assay buffer containing 1% Triton X-100. The estradiol […] from a 20 mM estradiol DMSO stock solution, which was diluted 1/20 (50 μl/ml) in 50 mM Hepes buffer containing 1% Triton X-100. All wells, except F1-H1 and F2-H2, also received 10 μl of 25 mg/ml NAD (SIGMA) in 100 mM Hepes, pH 9. The blank wells F1-H1 and F2-H2 received 10 μl of NAD buffer. 20 μl of PMS:MTS solution (100 μl PMS into 1800 μl MTS, Promega) was added to all wells. The plate was covered with aluminum foil and incubated at room temperature for 1.5 h. The plate was analyzed at 490 nm on a Hewlett Pachard 8453 spectrophotometer and results were calculated.
# [2] = read-out: IC50 values ≧2 μM and <10 μM
Structure (SMILES),IC50 [1],melting point,"IC50 [1, 2]"
CN1C(=O)CC(c2ccccc2F)C1C(O)c1ccc(-c2ccc(F)cc2)s1 (stereo not drawn) [Example 84],< 500 nM,178 °C,
CN1C(=O)C[C@H](c2ccccc2F)[C@@H]1[C@H](O)c1ccc(S(=O)(=O)c2ccccc2)s1 (racemic) [Example 89],< 500 nM,232 °C,
CN1C(=O)C[C@H](c2ccccc2)[C@@H]1[C@H](O)c1ccc(-c2ccccc2C(F)(F)F)s1 (racemic) [Example 34],< 500 nM,192 °C,
COc1cccc(-c2ccc(C(O)C3C(c4ccccc4)CC(=O)N3C)s2)c1 (racemic) [Example 31],< 500 nM,128 °C,
"C#Cc1ccc([C@@H](O)[C@H]2[C@@H](c3ccccc3)CC(=O)N2C)s1 (relative stereo) [Example 23, (±)-(4R*,5R*)-5-[(1S*)(5-ethynyl(2-thienyl))hydroxymethyl]-1-methyl-4-phenylpyrrolidin-2-one]",< 500 nM,187 °C,
Cc1cc(-c2ccccc2)c([C@@H](O)[C@H]2[C@@H](c3ccccc3)CC(=O)N2C)s1 (racemic) [Example 43],< 500 nM,85 °C,
COc1cccc(C2CC(=O)N(C)C2C(O)c2ccc(-c3ccc(F)cc3)s2)c1 (stereo not drawn) [Example 87],,172 °C,2000 to 10000 nM
CN1C(=O)C[C@H](c2ccccc2)[C@@H]1[C@H](O)c1ccc(-c2cccs2)s1 (racemic) [Example 29],< 500 nM,152 °C,
Cc1ccc(-c2ccc([C@@H](O)[C@H]3[C@@H](c4ccccc4)CC(=O)N3C)s2)c(F)c1 (racemic) [Example 72],< 500 nM,182 °C,
CN1C(=O)CC(c2ccccc2)C1C(O)c1ccc(-c2cccc([N+](=O)[O-])c2)s1 (racemic) [Example 44],< 500 nM,150 °C,
"CO[C@H](c1cccs1)[C@H]1[C@@H](c2ccccc2)CC(=O)N1C (relative stereo) [Example 12, (±)-(4R*,5R*)-5-((1S*)-methoxy-2-thienylmethyl)-1-methyl-4-phenylpyrrolidin-2-one]",,101 to 102 °C,2000 to 10000 nM
COc1ccccc1C1CC(=O)N(C)C1C(O)c1ccc(S(=O)(=O)c2ccc(Cl)cc2)s1 (stereo not drawn) [Example 92],< 500 nM,220 °C,
COc1ccc(S(=O)(=O)c2ccc([C@@H](O)[C@H]3[C@@H](c4ccccc4)CC(=O)N3C)s2)cc1 (racemic) [Example 58],< 500 nM,203 to 205 °C,
CN1C(=O)C[C@H](c2ccccc2)[C@@H]1[C@H](O)c1ccc(-c2ccccc2F)s1 (racemic) [Example 71],< 500 nM,216 °C,
CN1C(=O)CC(c2ccccc2)C1C(O)c1ccc(-c2ccc(-c3ccccc3)c(F)c2)s1 (stereo not drawn) [Example 47],,170 °C,2000 to 10000 nM
CN1C(=O)CC(c2ccccc2)C1C(O)c1ccc(S(=O)(=O)c2ccc(F)cc2)s1 (stereo not drawn) [Example 76],< 500 nM,192 °C,
"CN1C(=O)C[C@H](c2ccc(N)cc2)[C@@H]1[C@H](O)c1ccc(-c2ccccc2)s1 (relative stereo) [Example 17, (±)-(4R*,5R*)-5-[(1S*)-hydroxy(5-phenyl(2-thienyl))methyl]-4-(4-aminophenyl)-1-methylpyrrolidin-2-one]",< 500 nM,221 to 222 °C,
CN1C(=O)CC(c2ccccc2)C1C(O)c1ccc(-c2ccc(C(=O)O)cc2)s1 (stereo not drawn) [Example 68],< 500 nM,232 °C (dec.),
CN1C(=O)C[C@H](c2ccccc2)[C@@H]1[C@H](O)c1ccc(S(=O)(=O)N2CCSCC2)s1 (racemic) [Example 35],< 500 nM,197 to 199 °C,
CN1C(=O)CC(c2ccccc2)C1C(O)c1ccc(S(=O)(=O)N2CCN(c3ccc(F)cc3)CC2)s1 (racemic) [Example 37],< 500 nM,167 to 175 °C,
CN1C(=O)CC(c2ccccc2)C1C(O)c1ccc(Sc2ccccc2)s1 (stereo not drawn) [Example 66],< 500 nM,172 °C,
CN1C(=O)CC(c2ccccc2)C1C(O)c1ccc(-c2ccc(C(F)(F)F)cc2)s1 (stereo not drawn) [Example 32],,206 °C,2000 to 10000 nM

# Other lines, results leading:
IC50 [1],melting point,"IC50 [1, 2]",Structure (SMILES)
,184 °C,2000 to 10000 nM,CN1C(=O)CC(c2ccccc2)C1C(O)c1ccc(-c2ccccc2)o1 (stereo not drawn) [Example 117]
,183 °C,2000 to 10000 nM,CSc1ccc(-c2ccc([C@@H](O)[C@H]3[C@@H](c4ccccc4)CC(=O)N3C)o2)cc1 (racemic) [Example 116]
,255 to 256 °C,2000 to 10000 nM,CN1C(=O)C[C@H](c2ccccc2)[C@@H]1[C@H](O)c1cccc2ccccc12 (racemic) [Example 94]
< 500 nM,195 to 197 °C,,CN1C(=O)C[C@H](c2ccccc2F)[C@@H]1[C@H](O)c1ccc(-c2cccnc2)s1 [Example 151]
< 500 nM,205 to 207 °C,,CN1C(=O)CC(c2ccccc2)C1C(O)C#Cc1cccc(N)c1 (racemic) [Example 133]
,76 to 78 °C,2000 to 10000 nM,CN1C(=O)C[C@H](c2ccccc2)[C@@H]1[C@H](OCCCc1ccccc1)c1cccs1 [Example 141]
,193 °C,2000 to 10000 nM,CC(=O)Nc1cccc(-c2ccc([C@@H](O)[C@H]3[C@@H](c4ccccc4)CC(=O)N3C)o2)c1 (racemic) [Example 121]
< 500 nM,200 to 202 °C,,CN1C(=O)C[C@H](c2ccccc2F)[C@@H]1[C@H](O)c1ccc(-c2cccs2)s1 [Example 155]
,187 °C,2000 to 10000 nM,Cc1ccc(-c2ccc(C(O)C3C(c4ccccc4)CC(=O)N3C)o2)cc1 (stereo not drawn) [Example 115]
< 500 nM,213 to 215 °C,,CN1C(=O)C[C@H](c2ccccc2F)[C@@H]1[C@H](O)c1ccc(-c2ccccn2)s1 [Example 153]
,142 to 144 °C,2000 to 10000 nM,CCO[C@H](c1cccs1)[C@H]1[C@@H](c2ccccc2)CC(=O)N1C [Example 139]
< 500 nM,175 to 176 °C,,Cc1ccc(C)n1-c1cccc(C#C[C@@H](O)[C@H]2[C@@H](c3ccccc3)CC(=O)N2C)c1 (racemic) [Example 131]
< 500 nM,139 to 140 °C,,CN1C(=O)C[C@H](c2ccccc2)[C@@H]1[C@H](O)C#Cc1ccccc1Cl (racemic) [Example 126]
,95 to 96 °C,2000 to 10000 nM,CO[C@H](c1cccc(Cl)c1)[C@H]1[C@@H](c2ccccc2)CC(=O)N1C [Example 142]
,183 °C,2000 to 10000 nM,CN1C(=O)C[C@H](c2ccccc2)[C@@H]1[C@H](O)c1cccc(-c2cccc([N+](=O)[O-])c2)c1 (racemic) [Example 106]
< 500 nM,154 to 156 °C,,CN1C(=O)CC(c2ccccc2)C1C(O)C#Cc1ccc(F)cc1 (stereo not drawn) [Example 124]
,157 °C,2000 to 10000 nM,COc1cccc(-c2ccc(C(O)C3C(c4ccccc4)CC(=O)N3C)o2)c1 (stereo not drawn) [Example 120]
